Results on 5 compounds are retold here after patent US12539292B2, “BRM targeting compounds and associated methods of use” (Arvinas Operations, Inc., priority 2018, dated 2026).

This assay has as its target T1, BRM (Homo sapiens, UniProt P51531).
T1 construct: In-Cell Western Screen of BRM Degradation in SW1573 Cells; endogenous in cells; host or cells: SW1573
Kind of assay: In-cell Western screen of BRM degradation in SW1573 cells (Dmax and DC50). The format is cell-based. The conditions noted are these: BRM degradation, SW1573 cells; for DC50: read-out: DC50; for Dmax: read-out: Dmax (%) (% degraded). An outline of the steps:
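Overnight compound treatment (18-20 h, final DMSO 0.1%) of SW1573 cells in DMEM with 10% FBS precedes fixation and in-cell Western staining with 800/680 nm dye-labelled secondaries. Plate images give DC50 and maximal degradation.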

[1] abbreviates: tested at the top concentration of between 0.3 and 10 μM.

T1 sequence (P51531 whole entry): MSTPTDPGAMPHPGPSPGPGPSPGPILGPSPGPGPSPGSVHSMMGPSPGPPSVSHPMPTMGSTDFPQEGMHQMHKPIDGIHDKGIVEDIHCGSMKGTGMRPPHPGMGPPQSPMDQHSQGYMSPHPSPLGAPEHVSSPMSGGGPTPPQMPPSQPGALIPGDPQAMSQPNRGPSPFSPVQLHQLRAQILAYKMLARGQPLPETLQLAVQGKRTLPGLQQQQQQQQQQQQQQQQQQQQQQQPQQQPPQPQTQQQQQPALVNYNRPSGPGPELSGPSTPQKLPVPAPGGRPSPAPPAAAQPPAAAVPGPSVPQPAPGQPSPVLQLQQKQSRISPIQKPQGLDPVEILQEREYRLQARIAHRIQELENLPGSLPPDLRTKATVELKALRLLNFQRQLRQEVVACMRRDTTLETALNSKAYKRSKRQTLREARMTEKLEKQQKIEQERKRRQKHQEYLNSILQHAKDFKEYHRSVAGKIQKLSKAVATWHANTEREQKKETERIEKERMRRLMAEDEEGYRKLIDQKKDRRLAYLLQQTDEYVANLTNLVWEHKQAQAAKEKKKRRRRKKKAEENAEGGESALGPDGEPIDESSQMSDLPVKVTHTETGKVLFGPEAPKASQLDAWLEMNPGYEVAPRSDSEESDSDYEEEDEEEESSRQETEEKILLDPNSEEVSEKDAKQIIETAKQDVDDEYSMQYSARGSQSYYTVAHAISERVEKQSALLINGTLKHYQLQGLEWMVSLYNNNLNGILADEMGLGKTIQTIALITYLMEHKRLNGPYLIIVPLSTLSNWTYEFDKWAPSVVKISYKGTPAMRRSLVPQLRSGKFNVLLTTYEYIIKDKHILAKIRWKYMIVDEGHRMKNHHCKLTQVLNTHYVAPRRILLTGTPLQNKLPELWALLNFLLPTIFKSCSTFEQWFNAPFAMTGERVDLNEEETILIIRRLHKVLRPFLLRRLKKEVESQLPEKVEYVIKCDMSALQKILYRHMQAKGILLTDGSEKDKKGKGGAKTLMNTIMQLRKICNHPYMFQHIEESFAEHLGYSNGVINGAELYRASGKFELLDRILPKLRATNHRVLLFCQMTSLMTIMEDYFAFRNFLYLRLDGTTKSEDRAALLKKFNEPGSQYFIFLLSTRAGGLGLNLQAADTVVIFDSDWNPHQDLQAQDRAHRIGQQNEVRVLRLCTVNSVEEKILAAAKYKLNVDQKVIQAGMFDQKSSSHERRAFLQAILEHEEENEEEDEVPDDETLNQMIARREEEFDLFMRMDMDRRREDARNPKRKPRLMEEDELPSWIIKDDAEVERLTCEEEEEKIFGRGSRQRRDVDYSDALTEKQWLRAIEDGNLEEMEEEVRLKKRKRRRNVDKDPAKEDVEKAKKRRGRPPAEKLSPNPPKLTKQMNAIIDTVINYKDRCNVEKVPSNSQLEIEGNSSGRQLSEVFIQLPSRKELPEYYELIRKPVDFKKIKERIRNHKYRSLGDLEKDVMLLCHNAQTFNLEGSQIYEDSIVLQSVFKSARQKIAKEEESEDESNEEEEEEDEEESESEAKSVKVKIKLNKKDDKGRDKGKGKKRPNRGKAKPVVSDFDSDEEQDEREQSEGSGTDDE

As for `Cc1ncsc1-c1ccc([C@H](C)NC(=O)[C@@H]2C[C@@H](O)CN2C(=O)[C@H](c2onc(OCCN3CCC(O[C@H]4C[C@H](Oc5cc(N6C7CCC6CN(c6cc(-c8ccccc8O)nnc6N)C7)ccn5)C4)CC3)c2Cl)C(C)C)cn1` [compound 222, (2S,4R)-1-((2S)-2-(3-(2-(4-((1r,3S)-3-((4-(3-(3-amino-6-(2-hydroxyphenyl)pyridazin-4-yl)-3,8-diazabicyclo[3.2.1]octan-8-yl)pyridin-2-yl)oxy)cyclobutoxy)piperidin-1-yl)ethoxy)-4-chloroisoxazol-5-yl)-3-methylbutanoyl)-4-hydroxy-N-((S)-1-(6-(4-methylthiazol-5-yl)pyridin-3-yl)ethyl)pyrrolidine-2-carboxamide], the DC50 was above 30 nM.

As for `Cc1ncsc1-c1ccc([C@H](C)NC(=O)[C@@H]2C[C@@H](O)CN2C(=O)[C@@H](c2onc(OCCN3CCC(O[C@H]4C[C@H](Oc5cc(N6C7CCC6CN(c6cc(-c8ccccc8O)nnc6N)C7)ccn5)C4)CC3)c2Cl)C(C)C)cn1` [compound 223, (2S,4R)-1-((2R)-2-(3-(2-(4-((1r,3R)-3-((4-(3-(3-amino-6-(2-hydroxyphenyl)pyridazin-4-yl)-3,8-diazabicyclo[3.2.1]octan-8-yl)pyridin-2-yl)oxy)cyclobutoxy)piperidin-1-yl)ethoxy)-4-chloroisoxazol-5-yl)-3-methylbutanoyl)-4-hydroxy-N-((S)-1-(6-(4-methylthiazol-5-yl)pyridin-3-yl)ethyl)pyrrolidine-2-carboxamide], the DC50 was in the range of 2.5 to 10 nM. Also, the Dmax under setting [1] was above 75%. As to `Cc1ncsc1-c1ccc(CNC(=O)[C@@H]2C[C@@H](O)CN2C(=O)[C@H](c2cc(OCCN3CCC(O[C@H]4C[C@H](Oc5cc(N6C7CCC6CN(c6cc(-c8ccccc8O)nnc6N)C7)ccn5)C4)CC3)no2)C(C)C)c(C#N)c1` [compound 224, (2S,4R)-1-((2S)-2-(3-(2-(4-((1r,3S)-3-((4-(3-(3-amino-6-(2-hydroxyphenyl)pyridazin-4-yl)-3,8-diazabicyclo[3.2.1]octan-8-yl)pyridin-2-yl)oxy)cyclobutoxy)piperidin-1-yl)ethoxy)isoxazol-5-yl)-3-methylbutanoyl)-N-(2-cyano-4-(4-methylthiazol-5-yl)benzyl)-4-hydroxypyrrolidine-2-carboxamide], the DC50 was above 30 nM.

As for `Cc1ncsc1-c1ccc(CNC(=O)[C@@H]2C[C@@H](O)CN2C(=O)[C@@H](c2cc(OCCN3CCC(O[C@H]4C[C@H](Oc5cc(N6C7CCC6CN(c6cc(-c8ccccc8O)nnc6N)C7)ccn5)C4)CC3)no2)C(C)C)c(C#N)c1` [compound 225, (2S,4R)-1-((2R)-2-(3-(2-(4-((1r,3R)-3-((4-(3-(3-amino-6-(2-hydroxyphenyl)pyridazin-4-yl)-3,8-diazabicyclo[3.2.1]octan-8-yl)pyridin-2-yl)oxy)cyclobutoxy)piperidin-1-yl)ethoxy)isoxazol-5-yl)-3-methylbutanoyl)-N-(2-cyano-4-(4-methylthiazol-5-yl)benzyl)-4-hydroxypyrrolidine-2-carboxamide], the DC50 is below 2.5 nM. Further, under setting [1], the Dmax was above 75%.

On to `Cc1ncsc1-c1ccc([C@H](C)NC(=O)[C@@H]2C[C@@H](O)CN2C(=O)[C@H](c2cc(OCCC#Cc3ccc(OC4CC(Oc5cc(N6C7CC[C@@H]6CN(c6cc(-c8ccccc8O)nnc6N)C7)ccn5)C4)cn3)no2)C(C)C)cc1` (stereo partly drawn) [compound 226, (2S,4R)-1-((2S)-2-(3-((4-(5-((1r,3r)-3-((4-(3-(3-amino-6-(2-hydroxyphenyl)pyridazin-4-yl)-3,8-diazabicyclo[3.2.1]octan-8-yl)pyridin-2-yl)oxy)cyclobutoxy)pyridin-2-yl)but-3-yn-1-yl)oxy)isoxazol-5-yl)-3-methylbutanoyl)-4-hydroxy-N-((S)-1-(4-(4-methylthiazol-5-yl)phenyl)ethyl)pyrrolidine-2-carboxamide], for which the DC50 was in the range of 10 to 30 nM. Moreover, the “Dmax (%) (% degraded)” value under setting [1] was “A (A > 75)”.

A word on the DC50: it is the concentration at which degradation of the target reaches its halfway point. What is called Dmax is the greatest extent of degradation seen.
